Test results as given in the supplement of paper PMC10307832.

Key:
Experiment in all cases: relative viability (nuclei count vs DMSO), 5 days (fraction); higher = more cells survive
[1] = compound: N#CC[C@H](C1CCCC1)n1cc(-c2ncnc3[nH]ccc23)cn1 [Ruxolitinib] + N=C(N)NC(=N)NCCc1ccccc1 [Phenformin] (partner 250 µM)
In short: (§1)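 The day after seeding in 1536-well plates, lung cancer cell lines were treated by pin tool with a single drug, or with a fixed anchor-drug dose together with five library-drug doses (not always all listed) in √10 steps. After 5 days, a combined fix-and-stain solution (final 0.05% Triton X-100, 1% formaldehyde, 1 ug/ml Hoechst) was added. Nuclei counted on 4× images gave relative viability as treated counts over vehicle counts, reported as the median of duplicate plates.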

[2] = compound: CS(=O)(=O)c1ccc(-c2cnc(N)c(C(=O)Nc3ccccc3)n2)cc1 [VE-821] + CS(=O)(=O)N1CCN(Cc2cc3nc(-c4cccc5[nH]ncc45)nc(N4CCOCC4)c3s2)CC1 [Pictilisib] (partner 1 µM)
In short: as §1

[3] = compound: CS(=O)(=O)c1ccc(-c2cnc(N)c(C(=O)Nc3ccccc3)n2)cc1 [VE-821] + CC(=O)Nc1cccc(-n2c(=O)n(C3CC3)c(=O)c3c(Nc4ccc(I)cc4F)n(C)c(=O)c(C)c32)c1 [Trametinib] (partner 0.02 µM)
In short: as §1

[4] = compound: CS(=O)(=O)c1ccc(C(=O)Nc2ccc(Cl)c(-c3ccccn3)c2)c(Cl)c1 [Vismodegib] + Cc1nc(NC(=O)N2CCC[C@H]2C(N)=O)sc1-c1ccnc(C(C)(C)C(F)(F)F)c1 [Alpelisib] (partner 2 µM)
In short: as §1

## ChaGo-K-1
[1]; first compound 0.08 µM
  relative viability: 0.45
[1]; first compound 0.253 µM
  relative viability: 0.401
[1]; first compound 0.8 µM
  relative viability: 0.414
[1]; first compound 2.53 µM
  relative viability: 0.449
[1]; first compound 8 µM
  relative viability: 0.446
[2]; first compound 0.08 µM
  relative viability: 0.705
[2]; first compound 0.253 µM
  relative viability: 0.712
[2]; first compound 0.8 µM
  relative viability: 0.927
[2]; first compound 2.53 µM
  relative viability: 0.797
[2]; first compound 8 µM
  relative viability: 0.339
[3]; first compound 0.08 µM
  relative viability: 0.981
[3]; first compound 0.253 µM
  relative viability: 0.932
[3]; first compound 0.8 µM
  relative viability: 0.866
[3]; first compound 2.53 µM
  relative viability: 0.969
[3]; first compound 8 µM
  relative viability: 0.851

## EBC-1
[4]; first compound 0.08 µM
  relative viability: 0.838
[4]; first compound 0.253 µM
  relative viability: 0.891
[4]; first compound 0.8 µM
  relative viability: 0.876
[4]; first compound 2.53 µM
  relative viability: 0.789
[4]; first compound 8 µM
  relative viability: 0.891
[2]; first compound 0.08 µM
  relative viability: 0.295
[2]; first compound 0.253 µM
  relative viability: 0.353
[2]; first compound 0.8 µM
  relative viability: 0.382
[2]; first compound 2.53 µM
  relative viability: 0.433
[2]; first compound 8 µM
  relative viability: 0.312

## EKVX
[1]; first compound 0.08 µM
  relative viability: 0.275
[1]; first compound 0.253 µM
  relative viability: 0.209
[1]; first compound 0.8 µM
  relative viability: 0.204
[1]; first compound 2.53 µM
  relative viability: 0.221
[1]; first compound 8 µM
  relative viability: 0.235
[4]; first compound 0.08 µM
  relative viability: 0.946
[4]; first compound 0.253 µM
  relative viability: 0.974
[4]; first compound 0.8 µM
  relative viability: 0.907
[4]; first compound 2.53 µM
  relative viability: 0.871
[4]; first compound 8 µM
  relative viability: 0.875
[2]; first compound 0.08 µM
  relative viability: 0.509
[2]; first compound 0.253 µM
  relative viability: 0.412
[2]; first compound 0.8 µM
  relative viability: 0.451
[2]; first compound 2.53 µM
  relative viability: 0.411
[2]; first compound 8 µM
  relative viability: 0.356
[3]; first compound 0.08 µM
  relative viability: 0.347
[3]; first compound 0.253 µM
  relative viability: 0.317
[3]; first compound 0.8 µM
  relative viability: 0.298
[3]; first compound 2.53 µM
  relative viability: 0.376
[3]; first compound 8 µM
  relative viability: 0.3

## EMC-BAC-2
[1]; first compound 0.08 µM
  relative viability: 0.534
[1]; first compound 0.253 µM
  relative viability: 0.471
[1]; first compound 0.8 µM
  relative viability: 0.555
[1]; first compound 2.53 µM
  relative viability: 0.44
[1]; first compound 8 µM
  relative viability: 0.353
[4]; first compound 0.08 µM
  relative viability: 0.716
[4]; first compound 0.253 µM
  relative viability: 0.763
[4]; first compound 0.8 µM
  relative viability: 0.819
[4]; first compound 2.53 µM
  relative viability: 0.732
[4]; first compound 8 µM
  relative viability: 0.754
[2]; first compound 0.08 µM
  relative viability: 0.548
[2]; first compound 0.253 µM
  relative viability: 0.528
[2]; first compound 0.8 µM
  relative viability: 0.583
[2]; first compound 2.53 µM
  relative viability: 0.593
[2]; first compound 8 µM
  relative viability: 0.552
[3]; first compound 0.08 µM
  relative viability: 0.925
[3]; first compound 0.253 µM
  relative viability: 0.856
[3]; first compound 0.8 µM
  relative viability: 0.984
[3]; first compound 2.53 µM
  relative viability: 1.02
[3]; first compound 8 µM
  relative viability: 0.966

## EPLC-272H
[1]; first compound 0.08 µM
  relative viability: 0.297
[1]; first compound 0.253 µM
  relative viability: 0.323
[1]; first compound 0.8 µM
  relative viability: 0.306
[1]; first compound 2.53 µM
  relative viability: 0.278
[1]; first compound 8 µM
  relative viability: 0.269
[4]; first compound 0.08 µM
  relative viability: 0.894
[4]; first compound 0.253 µM
  relative viability: 0.888
[4]; first compound 0.8 µM
  relative viability: 0.872
[4]; first compound 2.53 µM
  relative viability: 1
[4]; first compound 8 µM
  relative viability: 0.931
[2]; first compound 0.08 µM
  relative viability: 0.427
[2]; first compound 0.253 µM
  relative viability: 0.32
[2]; first compound 0.8 µM
  relative viability: 0.347
[2]; first compound 2.53 µM
  relative viability: 0.399
[2]; first compound 8 µM
  relative viability: 0.309
[3]; first compound 0.08 µM
  relative viability: 0.291
[3]; first compound 0.253 µM
  relative viability: 0.28
[3]; first compound 0.8 µM
  relative viability: 0.273
[3]; first compound 2.53 µM
  relative viability: 0.289
[3]; first compound 8 µM
  relative viability: 0.27

## H3255
[1]; first compound 0.08 µM
  relative viability: 0.232
[1]; first compound 0.253 µM
  relative viability: 0.339
[1]; first compound 0.8 µM
  relative viability: 0.289
[1]; first compound 2.53 µM
  relative viability: 0.295
[1]; first compound 8 µM
  relative viability: 0.405
[4]; first compound 0.08 µM
  relative viability: 0.75
[4]; first compound 0.253 µM
  relative viability: 0.676
[4]; first compound 0.8 µM
  relative viability: 0.764
[4]; first compound 2.53 µM
  relative viability: 0.752
[4]; first compound 8 µM
  relative viability: 0.543
[2]; first compound 0.08 µM
  relative viability: 0.583
[2]; first compound 0.253 µM
  relative viability: 0.553
[2]; first compound 0.8 µM
  relative viability: 0.549
[2]; first compound 2.53 µM
  relative viability: 0.454
[2]; first compound 8 µM
  relative viability: 0.568
[3]; first compound 0.08 µM
  relative viability: 0.666
[3]; first compound 0.253 µM
  relative viability: 0.646
[3]; first compound 0.8 µM
  relative viability: 0.619
[3]; first compound 2.53 µM
  relative viability: 0.88
[3]; first compound 8 µM
  relative viability: 0.63

## HARA
[1]; first compound 0.08 µM
  relative viability: 0.431
[1]; first compound 0.253 µM
  relative viability: 0.536
[1]; first compound 0.8 µM
  relative viability: 0.516
[1]; first compound 2.53 µM
  relative viability: 0.391
[1]; first compound 8 µM
  relative viability: 0.319
[4]; first compound 0.08 µM
  relative viability: 0.833
[4]; first compound 0.253 µM
  relative viability: 0.863
[4]; first compound 0.8 µM
  relative viability: 0.817
[4]; first compound 2.53 µM
  relative viability: 0.8
[4]; first compound 8 µM
  relative viability: 0.788
[2]; first compound 0.08 µM
  relative viability: 0.509
[2]; first compound 0.253 µM
  relative viability: 0.294
[2]; first compound 0.8 µM
  relative viability: 0.408
[2]; first compound 2.53 µM
  relative viability: 0.401
[2]; first compound 8 µM
  relative viability: 0.477
[3]; first compound 0.08 µM
  relative viability: 0.686
[3]; first compound 0.253 µM
  relative viability: 1.08
[3]; first compound 0.8 µM
  relative viability: 0.553
[3]; first compound 2.53 µM
  relative viability: 0.767
[3]; first compound 8 µM
  relative viability: 0.608

## HCC-15
[1]; first compound 0.08 µM
  relative viability: 0.423
[1]; first compound 0.253 µM
  relative viability: 0.444
[1]; first compound 0.8 µM
  relative viability: 0.494
[1]; first compound 2.53 µM
  relative viability: 0.393
[1]; first compound 8 µM
  relative viability: 0.399
[4]; first compound 0.08 µM
  relative viability: 0.894
[4]; first compound 0.253 µM
  relative viability: 0.822
[4]; first compound 0.8 µM
  relative viability: 0.871
[4]; first compound 2.53 µM
  relative viability: 0.866
[4]; first compound 8 µM
  relative viability: 0.83
[2]; first compound 0.08 µM
  relative viability: 0.947
[2]; first compound 0.253 µM
  relative viability: 0.757
[2]; first compound 0.8 µM
  relative viability: 0.781
[2]; first compound 2.53 µM
  relative viability: 0.92
[2]; first compound 8 µM
  relative viability: 0.749
[3]; first compound 0.08 µM
  relative viability: 0.354
[3]; first compound 0.253 µM
  relative viability: 0.334
[3]; first compound 0.8 µM
  relative viability: 0.39
[3]; first compound 2.53 µM
  relative viability: 0.499
[3]; first compound 8 µM
  relative viability: 0.487

## HCC-44
[1]; first compound 0.08 µM
  relative viability: 0.103
[1]; first compound 0.253 µM
  relative viability: 0.143
[1]; first compound 0.8 µM
  relative viability: 0.228
[1]; first compound 2.53 µM
  relative viability: 0.168
[1]; first compound 8 µM
  relative viability: 0.216
[4]; first compound 0.08 µM
  relative viability: 0.787
[4]; first compound 0.253 µM
  relative viability: 0.771
[4]; first compound 0.8 µM
  relative viability: 0.717
[4]; first compound 2.53 µM
  relative viability: 0.799
[4]; first compound 8 µM
  relative viability: 0.818
[2]; first compound 0.08 µM
  relative viability: 1.86
[2]; first compound 0.253 µM
  relative viability: 0.468
[2]; first compound 0.8 µM
  relative viability: 0.701
[2]; first compound 2.53 µM
  relative viability: 0.708
[2]; first compound 8 µM
  relative viability: 0.79
[3]; first compound 0.08 µM
  relative viability: 1.11
[3]; first compound 0.253 µM
  relative viability: 1.03
[3]; first compound 0.8 µM
  relative viability: 1.12
[3]; first compound 2.53 µM
  relative viability: 1.13
[3]; first compound 8 µM
  relative viability: 0.961
